Reference: patent US7576128B2 (priority 2004, dated 2009)

Key:
androgen receptor = target: T1, androgen receptor (Homo sapiens, UniProt P10275); experiment: AR antagonist cell assay, MDA-MB453-MMTV clone 54-19 luciferase reporter; assay type: cell-based; conditions: MDA-MB453-MMTV clone 54-19, 100 pM DHT, 17 hr; mean of multiple tests; read-out: AR Cell IC50
T1 sequence (P10275 1-920 Q868H): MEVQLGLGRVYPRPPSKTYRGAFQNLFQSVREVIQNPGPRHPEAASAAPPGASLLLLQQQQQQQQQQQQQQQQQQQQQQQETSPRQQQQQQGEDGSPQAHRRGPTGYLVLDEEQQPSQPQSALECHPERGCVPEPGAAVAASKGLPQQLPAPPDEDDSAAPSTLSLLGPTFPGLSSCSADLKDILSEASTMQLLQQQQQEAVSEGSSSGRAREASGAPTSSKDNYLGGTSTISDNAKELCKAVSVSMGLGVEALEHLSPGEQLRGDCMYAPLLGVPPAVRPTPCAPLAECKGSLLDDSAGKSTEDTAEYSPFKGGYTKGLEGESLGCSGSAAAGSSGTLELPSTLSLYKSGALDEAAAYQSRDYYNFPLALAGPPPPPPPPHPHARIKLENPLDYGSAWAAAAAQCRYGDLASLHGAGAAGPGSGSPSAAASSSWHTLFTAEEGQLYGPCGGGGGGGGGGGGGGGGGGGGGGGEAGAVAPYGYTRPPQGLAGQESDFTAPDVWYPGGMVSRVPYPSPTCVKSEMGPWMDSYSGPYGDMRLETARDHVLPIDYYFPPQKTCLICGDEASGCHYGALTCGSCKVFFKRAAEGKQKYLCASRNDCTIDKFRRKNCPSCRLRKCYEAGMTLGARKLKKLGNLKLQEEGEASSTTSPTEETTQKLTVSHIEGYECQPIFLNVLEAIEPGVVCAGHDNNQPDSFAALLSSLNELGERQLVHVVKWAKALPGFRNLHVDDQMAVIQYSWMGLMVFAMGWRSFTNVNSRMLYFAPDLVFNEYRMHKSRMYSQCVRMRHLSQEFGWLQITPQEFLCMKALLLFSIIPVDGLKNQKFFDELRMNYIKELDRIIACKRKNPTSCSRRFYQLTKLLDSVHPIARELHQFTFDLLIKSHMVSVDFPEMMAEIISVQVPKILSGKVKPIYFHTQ
Procedure: The compounds ability to antagonize the effects of androgen on the androgen receptor were determined in a whole cell assay as described immediately below.
This cell line is a stable transfected cell line with MDA-MB453 cell background (a human breast tumor cell line expressing androgen receptor). A MMTV minimal promoter containing ARE was first cloned in front of a firefly luciferase reporter gene. Then the cascade was cloned into transfection vector pUV120puro. Electroporation method was used for transfecting MDA-MB-453 cell. Puromycin resistant stable cell line was selected.
• 1. Cells are maintained in culture medium, splitting cells when they reach 80-90% confluence • 2. To test compounds, 10,000 cells/well are plated to opaque 96 cell culture plate in 100 ul/well plating medium, culture for overnight at 37° C. in cell culture incubator • 3. Carefully remove plating medium, then add 80 ul/well of pre-warmed assay medium, add 10 ul/well testing compound (final concentration at) 1000 nM, 200 nM, 40 nM, 8 nM, 1.6 nM, and 0.32 nM), incubate at 37° C. for 30 minutes • 4. Add 10 ul/well freshly prepared DHT (final concentration at 100 pM) to each well, incubate at 37° C. for 17 hr (overnight) • 5.
The results are reported as the mean of multiple tests as described below (the numbers of tests are indicated in the footnote). N.D. denotes that the compound was not tested.

male Syrian hamsters = experiment: Animal model for inhibition of sebum production (hamster ear, HPLC of sebum components); assay type: in vivo; conditions: for % Reduction in CE: cholesterol ester; for % Reduction in CE / % Reduction in WE: 3 w/v% topical twice daily, five days a week, 4 weeks, difference from vehicle control; for Sum CE + WE: summation of CE and WE reductions; for % Reduction in WE: wax ester
Procedure: Luderschmidt et al describes an animal model for testing whether compounds are capable of modulating sebum secretion. Arch. Derm. Res. 258, 185-191 (1977). This model uses male Syrian hamsters, whose ears contain sebaceous glands. Selected compounds produced above were screened in this model.
Testing for sebum inhibition was carried out in the following manner. Male Syrian hamsters aged 9 to 10 weeks were introduced into the laboratory environment and acclimated for 2 weeks prior to use in the study. Each group consisted of 5 animals and were run in parallel with vehicle and positive controls. Prior to administration, 30mg of each compound was dissolved in 1 mL of Universal solvent (ethanol/propylene glycol (70/30%v/v) to achieve a final concentration of 3 w/v%.
Animals were dosed topically twice daily, five days a week, for 4 weeks. Each dose consisted of 25 micro liters of vehicle control or drug. The dose was applied to the ventral surfaces of both the right and left ears. All animals were sacrificed approximately 18-24 hours after the final dose. The right ears were collected from each animal and used for sebum analysis.
The ears were prepped for HPLC analysis in the following manner. One 8mm distal biopsy punch was taken, just above the anatomical “V” mark in the ear to normalize the sample area. The punch was pulled apart. The ventral biopsy surface (the area where the topical dose was directly applied to the sebaceous glands) was retained for testing and the dorsal surface of the biopsy punch was discarded.
HPLC analysis was carried out on an extract of the tissue sample. Tissue samples were contacted with 3ml of solvent (a 4:1 admixture of 2,2,4-trimethylpentane and isopropyl alcohol). The mixture was shaken for 15 minutes and stored overnight at room temperature, protected from light. The next morning 1 milliliter of water was added to the sample and shaken for 15 minutes. The sample was then centrifuged at approximately 1500 rpm for 15 minutes. Two ml of the organic phase (top layer) was transferred to a glass vial, dried at 37° C., under nitrogen, for approximately 1 hour, and then lyophilized for approximately 48 hours. The samples were then removed from the lyophilizer and each vial was reconstituted with 600 μl of solvent A (trimethylpentane/tetrahydrofuran (99:1). The samples were then recapped and vortexed for 5 minutes.
The results are reported as the reduction in cholesterol ester (CE) and wax ester (WE) production, when compared to the vehicle control.
Columns 1 and 2 identify the compound by structure and Example number. Columns 3 through 5 show the effect the compounds had on the -reduction of sebum components (CE and WE). The results are expressed as the difference from the vehicle control. A positive number reflects a decrease in the production of the sebum component being measured, i.e. cholesterol ester (CE) or wax ester (WE).

| SMILES | IC50 (androgen receptor) [nM] | % Reduction in CE (male Syrian hamsters) [%] | Sum CE + WE (male Syrian hamsters) [%] | % Reduction in WE (male Syrian hamsters) [%] |
| --- | --- | --- | --- | --- |
| CCCCC(COc1ccc(C#N)c(C(F)(F)F)c1)C(C)O (centres unmarked) [Example 15, 4-[2-(1-Hydroxy-ethyl)-hexyloxy]-2-tri-fluoromethyl-benzonitrile] | 124 | 54 | 128 | 74 |
| C[C@H](O)CC[C@H](C)Oc1ccc(C#N)c(C(F)(F)F)c1 [Example 23, (1S,4S)-4-(4-Hy-droxy-1-methylpentyl-oxy)-2-tri-fluoromethyl-benzonitrile] | 132 | 67 | 154 | 87 |
